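Exposure lasted 48 hours, with cells grown in 96-well plates and compounds tested at five concentrations. Abbreviation: GI50, concentration required for 50% inhibition of growth. TGI marks complete inhibition of growth.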

Some test systems named below: PC-3 prostate; MALME-3M melanoma; OVCAR-3 ovarian; UACC-62 melanoma; MDA-MB-435; MOLT-4 leukemia; HL-60(TB) leukemia; NCI-H23 lung; IGROV1 ovarian; NCI/ADR-RES ovarian.
Assay in all cases: NCI-60 cell line screen, 48 h

Regarding `C=C(C)C(O)C(O)c1c(OC)ccc2ccc(=O)oc12` (configuration not stated), the TGI in the assay with PC-3 prostate, with MALME-3M melanoma, in the assay with OVCAR-3 ovarian, in the assay on UACC-62 melanoma, in the assay with MDA-MB-435 and in the assay with MOLT-4 leukemia was more than 100 µM in each case. Moreover, the TGI with HL-60(TB) leukemia, in the assay on NCI-H23 lung, with IGROV1 ovarian and in the assay with NCI/ADR-RES ovarian was more than 100 µM throughout.
Regarding `O=c1oc2ccccc2cc1-c1cn2cc(Cl)ccc2n1`, the TGI in the assay with PC-3 prostate is 16.4 µM; in the assay with MALME-3M melanoma, 4.77 µM; with OVCAR-3 ovarian, 2.51 µM; in the assay with UACC-62 melanoma, 0.898 µM; in the assay with MDA-MB-435, 0.138 µM; in the assay on MOLT-4 leukemia, more than 36.1 µM. In addition, the TGI in the assay on HL-60(TB) leukemia was more than 61.7 µM; in the assay on NCI-H23 lung, 21.1 µM; with IGROV1 ovarian it was 17.7 µM; in the assay with NCI/ADR-RES ovarian, 2.73 µM.
Take `CCOC(=O)c1cnc2oc3ccc(O)cc3c2c1-c1ccccc1`: the TGI with PC-3 prostate, in the assay on MALME-3M melanoma, in the assay on OVCAR-3 ovarian, in the assay on UACC-62 melanoma, in the assay on MDA-MB-435 and in the assay on MOLT-4 leukemia was more than 100 µM each time. The TGI with HL-60(TB) leukemia is more than 100 µM; in the assay with NCI-H23 lung it was more than 100 µM; in the assay on IGROV1 ovarian, more than 100 µM; with NCI/ADR-RES ovarian it was 73.7 µM. Moreover, the GI50 was 2.53 µM in the assay on IGROV1 ovarian and 4.77 µM in the assay on NCI/ADR-RES ovarian.
As for `C/C=C(/C)C(=O)O[C@H](C[C@@H](C)[C@H]1CC(c2ccoc2)OC1=O)[C@@]1(C)C(=O)CCC2O[C@]21C` (some centres not stated), the TGI in the assay with PC-3 prostate, with MALME-3M melanoma, with OVCAR-3 ovarian, in the assay on UACC-62 melanoma, in the assay on MDA-MB-435 and in the assay with MOLT-4 leukemia was more than 100 µM each time. The TGI in the assay on HL-60(TB) leukemia, in the assay with NCI-H23 lung, with IGROV1 ovarian and with NCI/ADR-RES ovarian was more than 100 µM in each case.
For `Cc1c2c(n(CCc3ccc(Cl)cc3)c1C)NC(c1ccccc1)C(C#N)S2(=O)=O` (configuration not stated), the TGI in the assay with PC-3 prostate is more than 100 µM; in the assay with MALME-3M melanoma it was more than 80.2 µM; with OVCAR-3 ovarian, more than 100 µM; with UACC-62 melanoma, more than 100 µM; in the assay with MDA-MB-435 it was more than 66.9 µM; with MOLT-4 leukemia, 11.6 µM. Also, the TGI in the assay on HL-60(TB) leukemia, in the assay with NCI-H23 lung, with IGROV1 ovarian and with NCI/ADR-RES ovarian was more than 100 µM throughout.
Take `C=C(CO[Si](C)(C)C(C)(C)C)C(C)=O`: the TGI in the assay on PC-3 prostate was 98.5 µM; in the assay with MALME-3M melanoma, 39.7 µM; in the assay on OVCAR-3 ovarian, 38.1 µM; with UACC-62 melanoma it was 30.5 µM; in the assay on MDA-MB-435, 36.3 µM; in the assay with MOLT-4 leukemia, more than 21.2 µM. Also, the TGI is more than 100 µM in the assay on HL-60(TB) leukemia, more than 56.3 µM in the assay on NCI-H23 lung, more than 69.7 µM in the assay on IGROV1 ovarian and 99.6 µM in the assay on NCI/ADR-RES ovarian.
In the case of `CCOC(=O)c1c(N2CCCC2)ncn(Cc2ccccc2)c1=S`, the TGI in the assay with PC-3 prostate, in the assay on MALME-3M melanoma, in the assay on OVCAR-3 ovarian, with UACC-62 melanoma, in the assay on MDA-MB-435 and in the assay with MOLT-4 leukemia was more than 100 µM in each case. Also, the TGI in the assay with HL-60(TB) leukemia, in the assay with NCI-H23 lung, with IGROV1 ovarian and in the assay on NCI/ADR-RES ovarian was more than 100 µM throughout.
Turning to `O=C(Nc1ccccc1)N(CCCCN(Cc1ccccc1)C(=O)Nc1ccccc1)Cc1ccccc1`, the TGI in the assay on PC-3 prostate, with MALME-3M melanoma, in the assay on OVCAR-3 ovarian, in the assay on UACC-62 melanoma, in the assay on MDA-MB-435 and with MOLT-4 leukemia was more than 100 µM throughout. Besides, the TGI with HL-60(TB) leukemia, with NCI-H23 lung, in the assay with IGROV1 ovarian and in the assay on NCI/ADR-RES ovarian was more than 100 µM in each case.
Turning to `COC(=O)C(CSSC[C@H](N/C(C)=C/C(C)=O)C(=O)OC)N/C(C)=C/C(C)=O` (some centres not stated), the TGI with PC-3 prostate was more than 100 µM; in the assay on MALME-3M melanoma it was 68.6 µM; with OVCAR-3 ovarian, 88.9 µM; in the assay on UACC-62 melanoma, more than 100 µM; with MDA-MB-435 it was more than 100 µM; in the assay with MOLT-4 leukemia, more than 100 µM. Also, the TGI with HL-60(TB) leukemia, in the assay with NCI-H23 lung, in the assay with IGROV1 ovarian and with NCI/ADR-RES ovarian was more than 100 µM throughout.
`CC1(C)C2C=CC1(C)C1(CC2)OCCO1` (configuration not stated): the TGI in the assay with PC-3 prostate, with MALME-3M melanoma, with OVCAR-3 ovarian, with UACC-62 melanoma, with MDA-MB-435 and in the assay on MOLT-4 leukemia was more than 100 µM each time. The TGI in the assay on HL-60(TB) leukemia, with NCI-H23 lung, with IGROV1 ovarian and in the assay on NCI/ADR-RES ovarian was more than 100 µM each time.
In the case of `CCCC(=O)NC(Nc1ccc(S(=O)(=O)Nc2nc(C)cc(C)n2)cc1)(C(F)(F)F)C(F)(F)F`, the TGI in the assay with PC-3 prostate, with MALME-3M melanoma, in the assay on OVCAR-3 ovarian, in the assay on UACC-62 melanoma, in the assay with MDA-MB-435 and with MOLT-4 leukemia was more than 100 µM throughout. Besides, the TGI with HL-60(TB) leukemia, with NCI-H23 lung, in the assay on IGROV1 ovarian and in the assay on NCI/ADR-RES ovarian was more than 100 µM in each case.
For `CC(=O)c1c(C(F)(F)F)n([O-])c2cc(Cl)c(Cl)cc2[n+]1=O`, the TGI was found to be 3.09 µM in the assay with PC-3 prostate; 2.47 µM in the assay on MALME-3M melanoma; 3.19 µM in the assay on OVCAR-3 ovarian; 2.58 µM with UACC-62 melanoma; 2.67 µM in the assay on MDA-MB-435; 0.544 µM in the assay with MOLT-4 leukemia. Also, the TGI with HL-60(TB) leukemia was determined as 1.43 µM; in the assay with NCI-H23 lung, 2.71 µM; in the assay with IGROV1 ovarian it was 0.498 µM; in the assay with NCI/ADR-RES ovarian, 4.85 µM.
For the compound `O=c1c2cc(I)ccc2nc(-c2cccs2)n1-c1ccc(O)cc1`, the TGI in the assay on PC-3 prostate was 22.5 µM; in the assay with MALME-3M melanoma, 20.6 µM; in the assay on OVCAR-3 ovarian it was 21.8 µM; in the assay on UACC-62 melanoma, 26.9 µM; in the assay with MDA-MB-435 it was 30.8 µM; with MOLT-4 leukemia, 78.9 µM. For the same compound, the TGI was determined as 36.7 µM in the assay on HL-60(TB) leukemia, 36.7 µM in the assay on NCI-H23 lung, 46.7 µM with IGROV1 ovarian and 56.2 µM in the assay on NCI/ADR-RES ovarian.

The values above are taken from PubChem BioAssay (NCI).
